Laboratory results from US7906546B2, “Tetrahydrocarbazoles and derivatives” (Hoffmann-La Roche Inc., priority 2004, dated 2011).
pIC50: −log10 of the molar value.

Tests used:
[1] = biological target: T1, human LXRβ (Homo sapiens, UniProt P55055); assay: Radioligand binding assay (scintillation proximity), LXRbeta; conditions: GST-LXRβ-LBD on SPA beads, radioligand displacement
T1 construct: human LXRβ (aa 155 to 460); made in house; host or cells: E. coli BL21(pLysS)
T1 sequence (P55055 155-460): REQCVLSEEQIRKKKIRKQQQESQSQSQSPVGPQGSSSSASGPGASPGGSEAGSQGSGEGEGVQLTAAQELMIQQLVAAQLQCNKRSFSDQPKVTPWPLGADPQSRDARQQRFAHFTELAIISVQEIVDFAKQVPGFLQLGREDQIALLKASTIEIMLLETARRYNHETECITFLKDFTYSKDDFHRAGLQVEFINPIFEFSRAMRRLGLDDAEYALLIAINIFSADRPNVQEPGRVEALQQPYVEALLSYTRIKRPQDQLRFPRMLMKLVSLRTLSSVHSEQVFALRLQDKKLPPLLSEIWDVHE
Method: (§1) Mammalian expression vectors were constructed to express full-length human LXRα and LXRβ. […] To accomplish this, the portions of the sequences encoding the LBDs were amplified from full-length clones by PCR and then subcloned into the plasmid vectors.
(§2) Induction, expression, and purification of GST-LBD fusion proteins were performed in E. coli strain BL21(pLysS) cells by standard methods (Ref: Current Protocols in Molecular Biology, Wiley Press, edited by Ausubel et al).
(§3) LXRα and LXRβ receptor binding were assayed in buffer consisting of 50 mM HEPES, pH 7.4, 10 mM NaCl, 5 mM MgCl2. For each 96-well reaction, 500 ng of GST-LXRα-LBD or 700 ng of GST-LXRβ-LBD fusion proteins were bound to 80 μg or 40 μg SPA beads (Pharmacia Amersham) respectively, in a final volume of 50 μl by shaking. The resulting slurry was incubated for 1 h at RT and centrifuged for 2 min at 1300×g. The supernatant containing unbound protein was removed, and the semi-dry pellet containing the receptor-coated beads was re-suspended in 50 μl of buffer. […] All binding assays were performed in 96-well plates and the amount of bound ligand was measured on a Packard TopCount using OptiPlates (Packard). […]

[2] = biological target: T2, human LXRα (Homo sapiens, UniProt Q13133); assay: Radioligand binding assay (scintillation proximity), LXRalpha; conditions: GST-LXRα-LBD on SPA beads, radioligand displacement
T2 construct: human LXRα (aa 164 to 447); made in house; host or cells: E. coli BL21(pLysS)
T2 sequence (Q13133 164-447): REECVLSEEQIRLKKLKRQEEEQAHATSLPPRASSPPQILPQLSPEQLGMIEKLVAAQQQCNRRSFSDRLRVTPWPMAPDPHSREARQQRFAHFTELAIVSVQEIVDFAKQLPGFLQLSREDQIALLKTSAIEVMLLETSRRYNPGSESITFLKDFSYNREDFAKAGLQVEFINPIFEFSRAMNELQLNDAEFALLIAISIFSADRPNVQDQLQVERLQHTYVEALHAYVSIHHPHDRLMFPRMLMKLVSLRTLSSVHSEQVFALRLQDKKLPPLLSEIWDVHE
Method: as §1, §2, §3

Row | Structure (SMILES) | pIC50 [1] | pIC50 [2]
1 | Cc1nnc([C@@](F)([C@@H]2Cc3[nH]c4ccc(Cl)cc4c3C2)S(=O)(=O)c2cccc(N(C)C)c2)o1 (racemic) [(RS, SR) {3-[(7-chloro-1,2,3,4-tetrahydro-cyclopenta[b]indol-2-yl)-fluoro-(5-methyl-[1,3,4]oxadiazol-2-yl)-methanesulfonyl]-phenyl}-dimethyl-amine] | 8.22 | 7.37
2 | COC(=O)[C@@](C)([C@H]1CCc2c([nH]c3ccc(Cl)cc23)C1)S(=O)(=O)c1ccccc1 (racemic) [(RS,SR)-2-benzenesulfonyl-2-(6-chloro-2,3,4,9-tetrahydro-1H-carbazol-2-yl)-propionic acid methyl ester] | 6.57 | 5.80
